From patent US20230348538A1, “METHOD FOR TREATMENT OF DRY EYE COMPRISNG APPLYING P55PIK INHIBITOR” (Wuhan Yicheng Biological Technology Co., Ltd., priority 2020, published 2023)

Tested on: dry eye model induced by 0.2% benzalkonium chloride solution
Assay: Benzalkonium chloride dry eye model: corneal fluorescein sodium staining score
Assay type: in vivo, C57BL/6 mice
Settings: for Corneal fluorescein staining scores (x ± s): total score of 16 points
Description: The healthy male C57BL/6 mice were kept in a controlled environment with a temperature of (25±1)° C., a relative humidity of (25±5)%, and light-dark cycles (9 AM-9 PM) with simulated dawn and dusk. Forty mice (80 eyes) were treated with 5 μL of 0.2% benzalkonium chloride solution twice a day (8:00 AM and 6:00 PM) for 14 days to induce dry eye symptoms, while the remaining ten mice (20 eyes) received no treatment and served as a baseline control. Modeling was carried out on the 15th day; and the dry eye rat models were screened based on tear film break-up time (BUT), fluorescein sodium staining of corneal, and Schirmer's test I for tear secretion. Fluorescein sodium staining was carried out to determine if there any epithelial damage in the corneal of mice; one drop of 1% fluorescein sodium solution was instilled into the conjunctival sac of the mouse eyes; after 1 minute, the corneal epithelial stained by fluorescein sodium was observed under the cobalt blue filter on the slit lamp. Scoring criteria: the cornea was divided into 4 quadrants; and a scoring system was used to assess the staining; each quadrant was given a score ranging from 0 to 4 points, with a total score of 16 points. A score of 0 indicated no staining; 1 point represented less than 30 punctate staining spots; 2 points represented more than 30 punctate staining spots but not diffuse; 3 points represented obviously diffuse staining but no patchy staining; 4 points represented patchy staining. […] Group A, the drug treatment group, was treated with the eye drops comprising 0.1% TAT-[…] peptide, four times a day; Group B, the solvent control group, was treated with eye drops without TAT-[…] peptide, four times a day; and Group C, the blank control group, received no treatment; on days 1, 4, and 7 after treatment, BUT, Schirmer's test I, and fluorescein sodium staining were performed; on the 7th day, the paraffin sections of the conjunctival fornix was stained by PAS stain; and the number of PAS-positive goblet cells was counted.

For “TAT-N16 peptide: cell-penetrating artificial peptide, sequence SEQ ID NO: 2, constructed by linking the peptide N16 to a TAT sequence; P55PIK inhibitor (YGRKKRRQRRRMMPYSTELIFYIEMDP)”, the Corneal fluorescein staining scores (x ± s) (0 d (baseline), drug treatment group, 0.1% eye drops) was 8.29 ± 1.31, the “Corneal fluorescein staining score compared with blank control group, model control group and solvent control group” value (4th day of treatment) was “significantly lower” and the Corneal fluorescein staining scores (x ± s) (4 d, 0.1% eye drops four times a day) was 4.12 ± 0.81. The Corneal fluorescein staining scores (x ± s) (7 d, 0.1% eye drops four times a day) was 2.79 ± 1.25 and the “Corneal fluorescein staining score compared with blank control group, model control group and solvent control group” value (7 days of continuous treatment, P<0.05) was “significantly lower”.
